Test results as given in patent US9730447B2, “Fungicidal amides” (E I DU PONT DE NEMOURS AND COMPANY, priority 2013, dated 2017).

Columns and labels:
Type in all cases: in vivo
Septoria tritici = assay: Test C: preventive spray on wheat seedlings, Septoria tritici (wheat leaf blotch), visual disease rating; conditions: 100 = 100% disease control, 0 = no control, unmarked values
From the text: (§1) General protocol for preparing test suspensions for Tests A-E: the test compounds were first dissolved in acetone in an amount equal to 3% of the final volume and then suspended at the desired concentration (in ppm) in acetone and purified water (50/50 mix by volume) containing 250 ppm of the surfactant Trem® 014 (polyhydric alcohol esters). The resulting test suspensions were then used in Tests A-E. Compounds were sprayed with either a 40 ppm or 10 ppm (*) test suspension to the point of run-off on the test plants which is the equivalent of a rate of 160 g ai/ha or 40 g ai/ha, respectively.
(§2) The test suspension was sprayed to the point of run-off on wheat seedlings. The following day the seedlings were inoculated with a spore suspension of Septoria tritici (the causal agent of wheat leaf blotch) and incubated in a saturated atmosphere at 24° C. for 48 h, and then moved to a growth chamber at 20° C. for 21 days, after which time visual disease ratings were made.
(§3) Results for Tests A-E are given in Table A. In the Table, a rating of 100 indicates 100% disease control and a rating of 0 indicates no disease control (relative to the controls). A dash (-) indicates no test results.

[1] = tested on: Stagonospora nodorum (also known as Septoria nodorum); assay: Test B: preventive spray on wheat seedlings, Stagonospora nodorum (wheat glume blotch), visual disease rating; conditions: 100 = 100% disease control, 0 = no control, unmarked values
From the text: as §1
The test suspension was sprayed to the point of run-off on wheat seedlings. The following day the seedlings were inoculated with a spore suspension of Stagonospora nodorum (also known as Septoria nodorum; the causal agent of wheat glume blotch) and incubated in a saturated atmosphere at 20° C. for 48 h, and then moved to a growth chamber at 20° C. for 6 days, after which time visual disease ratings were made.
as §3

[2] = tested on: Puccinia recondite f. sp. tritici; assay: Test D: preventive spray on wheat seedlings, Puccinia recondite f. sp. tritici (wheat leaf rust), visual disease rating; conditions: 100 = 100% disease control, 0 = no control, unmarked values
From the text: as §1
as §2, with “Puccinia recondite f. sp. tritici;” for “Septoria tritici”, “rust)” for “blotch)”, “20°” for “24°”, “24” for “48”, “6” for “21”
as §3

Botrytis cinerea = assay: Test A: preventive spray on tomato seedlings, Botrytis cinerea (gray mold), visual disease rating; conditions: 100 = 100% disease control, 0 = no control relative to controls, unmarked values
From the text: as §1
The test suspension was sprayed to the point of run-off on tomato seedlings. The following day the seedlings were inoculated with a spore suspension of Botrytis cinerea (the causal agent of gray mold on many crops) and incubated in a saturated atmosphere at 20° C. for 48 h, and moved to a growth chamber at 27° C. for 2 days, after which time visual disease ratings were made.
as §3

[3] = tested on: Erysiphe graminis f. sp. tritici; assay: Test E: preventive spray on wheat seedlings, Erysiphe graminis f. sp. tritici (wheat powdery mildew), visual disease rating; conditions: 100 = 100% disease control, 0 = no control, unmarked values
From the text: as §1
The test suspension was sprayed to the point of run-off on wheat seedlings. The following day the seedlings were inoculated with a spore dust of Erysiphe graminis f. sp. tritici, (the causal agent of wheat powdery mildew) and incubated in a growth chamber at 20° C. for 8 days, after which time visual disease ratings were made.
as §3

Molecule	Test C disease control rating (Septoria tritici)	Test B disease control rating [1]	Test D disease control rating [2]	Test A disease control rating (Botrytis cinerea)	Test E disease control rating [3]
3-(trifluoromethyl)-N-[2-[6-[3-(trifluoromethyl)-1H-pyrazol-1-yl]-3-pyridazinyl]phenyl]-2-pyridinecarboxamide [Compound 59]	100%	100%	100%	100%	99%
O=C(Nc1ccccc1-c1ccc(C2=NOC(c3ccc(F)cc3)C2)nc1)c1ncccc1C(F)(F)F (racemic) [compound 6]	99%	100%	100%	99%	0%
O=C(Nc1ccccc1-c1ccc(C2=NOC(c3cccc(F)c3)C2)nc1)c1ncccc1C(F)(F)F (racemic) [compound 17]	100%	100%	99%	98%	0%
COc1cccc(C2CC(c3ccc(-c4ccccc4NC(=O)c4ncccc4C(F)(F)F)cn3)=NO2)c1 (racemic) [compound 18]	100%	100%	99%	96%	0%
O=C(Nc1ccccc1-c1ccc(C2=NOC(c3cc(F)cc(F)c3)C2)nc1)c1ncccc1C(F)(F)F (racemic) [compound 19]	100%	100%	100%	98%	87%
COc1cc(OC)cc(C2CC(c3ccc(-c4ccccc4NC(=O)c4ncccc4C(F)(F)F)cn3)=NO2)c1 (racemic) [compound 20]	96%	100%	99%	89%	0%
Cn1cc(C(=O)Nc2ccccc2-c2ccc(-n3cc(-c4cccc(F)c4)cn3)nc2)c(C(F)F)n1 [compound 5]	100%	100%	100%	100%	99%
Cn1cc(C(=O)Nc2ccccc2-c2ccc(-n3cc(-c4ccccc4F)cn3)nc2)c(C(F)F)n1 [compound 7]	100%	100%	100%	100%	97%
COc1ccccc1-c1cnn(-c2ccc(-c3ccccc3NC(=O)c3cn(C)nc3C(F)F)cn2)c1 [compound 8]	99%	99%	100%	99%	99%
COc1cccc(-c2cnn(-c3ccc(-c4ccccc4NC(=O)c4cn(C)nc4C(F)F)cn3)c2)c1 [compound 9]	100%	100%	100%	100%	100%
COc1cc(OC)cc(-c2cnn(-c3ccc(-c4ccccc4NC(=O)c4cn(C)nc4C(F)F)cn3)c2)c1 [compound 10]	100%	100%	100%	100%	97%
Cn1cc(C(=O)Nc2ccccc2-c2ccc(-n3ccc(Br)n3)nc2)c(C(F)F)n1 [compound 11]	100%	100%	100%	100%	99%
